Assay results from patent US20250352658A1, “COMBINATION THERAPY USING ANTIBODY-DRUG CONJUGATES” (ADC THERAPEUTICS SA, priority 2021, published 2025).
Square brackets hold non-standard residues; d marks the D form. Peptide text beside a SMILES is read from it. * marks the point of attachment. Dolaproine = CO[C@@H]([C@@H]1CCCN1)[C@@H](C)C(=O)O; Dil = CC[C@H](C)[C@H](NC)[C@@H](CC(=O)O)OC; X1 = C[C@@H](N*)[C@@H](O)c1ccccc1; NMeV = CN[C@H](C(=O)O)C(C)C

Test system: TMD8 cells
Experiment: CellTiterGlo viability assay, SG3199 and MMAE combination, TMD8
Format: cell-based
Conditions: for Fa (fraction affected) / CI (combination index): 24 hours
Experimental: We tested a combination of the warheads alone used in CD19xADC (PBD SG3199) and CD79bxADC (monomethyl auristatin E (MMAE)). This was performed essentially as per Example 1, in TMD8 cells. Cells were seeded at a density of 50,000 cells/mL. […]
Cells were incubated for 24 hours and then viability was measured with CellTiterGlo assay.
For analysis of the results, data were first blank corrected (average of blank of the 3 replicates was subtracted from each data value). For GraphPad analysis, each replicate was normalized over the untreated cells (average of the 3 replicates). Data were analysed by GraphPad Prism to generate a dose response curve with Log drug concentration on X-axis and cell viability (%) on Y-axis. For CalcuSyn analysis, the average of the 3 replicates was corrected over the untreated cells.

[1] = SG3199 0.06 pM + MMAE 0.08 ng/ml
[2] = SG3199 0.06 pM + MMAE 0.2 ng/ml
[3] = SG3199 0.06 pM + MMAE 0.6 ng/ml
[4] = SG3199 0.06 pM + MMAE 1.9 ng/ml
[5] = SG3199 0.06 pM + MMAE 5.6 ng/ml
[6] = SG3199 0.23 pM + MMAE 0.08 ng/ml
[7] = SG3199 0.23 pM + MMAE 0.2 ng/ml
[8] = SG3199 0.23 pM + MMAE 0.6 ng/ml
[9] = SG3199 0.23 pM + MMAE 1.9 ng/ml
[10] = SG3199 0.23 pM + MMAE 5.6 ng/ml
[11] = SG3199 0.90 pM + MMAE 0.08 ng/ml
[12] = SG3199 0.90 pM + MMAE 0.2 ng/ml
[13] = SG3199 0.90 pM + MMAE 0.6 ng/ml
[14] = SG3199 0.90 pM + MMAE 1.9 ng/ml
[15] = SG3199 0.90 pM + MMAE 5.6 ng/ml
[16] = SG3199 3.6 pM + MMAE 0.08 ng/ml
[17] = SG3199 14.4 pM + MMAE 0.08 ng/ml
[18] = SG3199 14.4 pM + MMAE 0.2 ng/ml
[19] = SG3199 14.4 pM + MMAE 0.6 ng/ml
[20] = SG3199 14.4 pM + MMAE 1.9 ng/ml
[21] = SG3199 14.4 pM + MMAE 5.6 ng/ml
[22] = SG3199 57.5 pM + MMAE 0.08 ng/ml
[23] = SG3199 57.5 pM + MMAE 0.2 ng/ml
[24] = SG3199 57.5 pM + MMAE 0.6 ng/ml
[25] = SG3199 57.5 pM + MMAE 1.9 ng/ml
[26] = SG3199 57.5 pM + MMAE 5.6 ng/ml
[27] = SG3199 230 pM + MMAE 0.08 ng/ml

CC[C@H](C)[C@@H]([C@@H](CC(=O)N1CCC[C@H]1[C@H](OC)[C@@H](C)C(=O)N[C@H](C)[C@@H](O)c1ccccc1)OC)N(C)C(=O)[C@@H](NC(=O)[C@@H](NC)C(C)C)C(C)C [MMAE, monomethyl auristatin E, reference compound] (H-[NMeV]V[Dil][Dolaproine]-X1)
Fa (fraction affected) (MMAE 0.08 ng/ml alone (SG3199 0)): 0.11
Fa (fraction affected) (MMAE 0.2 ng/ml alone (SG3199 0)): 0.17
Fa (fraction affected) (MMAE 0.6 ng/ml alone (SG3199 0)): 0.27
Fa (fraction affected) (MMAE 1.9 ng/ml alone (SG3199 0)): 0.29
Fa (fraction affected) (MMAE 5.6 ng/ml alone (SG3199 0)): 0.38

CC[C@H](C)[C@@H]([C@@H](CC(=O)N1CCC[C@H]1[C@H](OC)[C@@H](C)C(=O)N[C@H](C)[C@@H](O)c1ccccc1)OC)N(C)C(=O)[C@@H](NC(=O)[C@@H](NC)C(C)C)C(C)C.COc1cc2c(cc1OCCCCCOc1cc3c(cc1OC)C(=O)N1C=C(C)C[C@H]1C=N3)N=C[C@@H]1CC(C)=CN1C2=O [SG3199 + MMAE] (H-[NMeV]V[Dil][Dolaproine]-X1)
CI (combination index) [1]: 1.65
Fa (fraction affected) [1]: 0.12
CI (combination index) [2]: 2.06
Fa (fraction affected) [2]: 0.13
CI (combination index) [3]: 0.53
Fa (fraction affected) [3]: 0.27
CI (combination index) [4]: 0.79
Fa (fraction affected) [4]: 0.32
CI (combination index) [5]: 1.23
Fa (fraction affected) [5]: 0.38
CI (combination index) [6]: 434.19
Fa (fraction affected) [6]: 0.05
CI (combination index) [7]: 2.22
Fa (fraction affected) [7]: 0.14
CI (combination index) [8]: 0.40
Fa (fraction affected) [8]: 0.29
CI (combination index) [9]: 1.18
Fa (fraction affected) [9]: 0.29
CI (combination index) [10]: 0.98
Fa (fraction affected) [10]: 0.40
CI (combination index) [11]: 0.58
Fa (fraction affected) [11]: 0.19
CI (combination index) [12]: 2.08
Fa (fraction affected) [12]: 0.16
CI (combination index) [13]: 0.29
Fa (fraction affected) [13]: 0.31
CI (combination index) [14]: 0.83
Fa (fraction affected) [14]: 0.32
CI (combination index) [15]: 0.85
Fa (fraction affected) [15]: 0.41
CI (combination index) [16]: 5.16
Fa (fraction affected) [16]: 0.16
CI (combination index) (SG3199 3.6 pM + MMAE 0.2 ng/ml): 69.07
Fa (fraction affected) (SG3199 3.6 pM + MMAE 0.2 ng/ml): 0.11
CI (combination index) (SG3199 3.6 pM + MMAE 0.6 ng/ml): 1.26
Fa (fraction affected) (SG3199 3.6 pM + MMAE 0.6 ng/ml): 0.23
CI (combination index) (SG3199 3.6 pM + MMAE 1.9 ng/ml): 1.36
Fa (fraction affected) (SG3199 3.6 pM + MMAE 1.9 ng/ml): 0.28
CI (combination index) (SG3199 3.6 pM + MMAE 5.6 ng/ml): 1.93
Fa (fraction affected) (SG3199 3.6 pM + MMAE 5.6 ng/ml): 0.34
CI (combination index) [17]: 12.16
Fa (fraction affected) [17]: 0.17
CI (combination index) [18]: 18.45
Fa (fraction affected) [18]: 0.16
CI (combination index) [19]: 0.60
Fa (fraction affected) [19]: 0.29
CI (combination index) [20]: 1.32
Fa (fraction affected) [20]: 0.29
CI (combination index) [21]: 1.12
Fa (fraction affected) [21]: 0.39
CI (combination index) [22]: 0.22
Fa (fraction affected) [22]: 0.34
CI (combination index) [23]: 0.39
Fa (fraction affected) [23]: 0.33
CI (combination index) [24]: 0.23
Fa (fraction affected) [24]: 0.37
CI (combination index) [25]: 0.30
Fa (fraction affected) [25]: 0.42
CI (combination index) [26]: 0.37
Fa (fraction affected) [26]: 0.49
CI (combination index) [27]: 0.03
Fa (fraction affected) [27]: 0.47
CI (combination index) (SG3199 230 pM + MMAE 0.2 ng/ml): 0.02
Fa (fraction affected) (SG3199 230 pM + MMAE 0.2 ng/ml): 0.51
CI (combination index) (SG3199 230 pM + MMAE 0.6 ng/ml): 0.03
Fa (fraction affected) (SG3199 230 pM + MMAE 0.6 ng/ml): 0.54
CI (combination index) (SG3199 230 pM + MMAE 1.9 ng/ml): 0.04
Fa (fraction affected) (SG3199 230 pM + MMAE 1.9 ng/ml): 0.59
CI (combination index) (SG3199 230 pM + MMAE 5.6 ng/ml): 0.09
Fa (fraction affected) (SG3199 230 pM + MMAE 5.6 ng/ml): 0.62
median Chou-Talalay combination index (CI) (TMD8, 24 hours, <0.9 indicates synergy): 0.85
